Source: patent US10842793B2, “Inhibitors of the unconventional secretion of fibroblast growth factor 2 (FGF2) by tumor cells and uses thereof” (Universität Heidelberg, priority 2016, dated 2020)
Entries after “also recorded” stand apart in the source; their conditions may differ.

How the values were obtained:
[1] = test system: CHO cells stably expressing FGF2-GFP; assay: FGF2-GFP secretion by cell surface biotinylation; type: cell-based; conditions: 10, 25 and 50 μM; mock 0.5% DMSO = 100%
Description: A stable CHO cell line expressing an FGF2-GFP fusion protein in a doxycycline-dependent manner was used to quantify FGF2 transport to cell surfaces in the absence and presence of the small molecule inhibitors introduced in FIGS. 4, 5, 6 and 7. As detailed in Experimental Procedures, following cultivation of cells in the presence of compounds as indicated and induction of FGF2-GFP expression, proteins localized to the cell surface were biotinylated with a membrane-impermeable reagent. Following quenching of the biotinylation reagent, biotinylated proteins were purified using streptavidin beads. Following SDS-PAGE analyzing both the total lysate (input termed “cells”; 1.7%) and the biotinylated cell surface fraction (33%), a Western analysis was conducted to detect the secreted population of FGF2-GFP. Using appropriate fluorescent secondary antibodies, both FGF2-GFP and GAPDH (used as a control protein restricted to the intracellular space) were quantified using the LI-COR Odyssey imaging platform. FGF2-GFP secretion quantified under mock conditions (0.5% DMSO) was defined as 100% secretion efficiency. Standard deviations are shown from three independent experiments, each of which was conducted in two technical replicates. A two-tailed and unpaired T-test was conducted to assess statistical significance (* p<0.05, ** p<0.01, *** p<0.001, **** p<0.0001). “NS” indicates absence of significant differences.
Secreted FGF2 remains bound to heparan sulfates on cell surfaces without release into cell culture supernatants. This allows for biochemical detection of the secreted population based upon cell surface biotinylation experiments. CHO cells stably expressing FGF2-GFP in a doxycycline-dependent manner were cultivated in the presence of compounds #6, #14, #21, #18 and #19 (see FIGS. 4 and 5) at 10 μM, 25 μM and 50 μM in 0.5% DMSO (final concentration) as well as under mock conditions. […] Using appropriate fluorescent secondary antibodies, FGF2-GFP and GAPDH were quantified using the LI-COR Odyssey imaging platform. […]

[2] = Observation of compound aggregates in cell culture media; type: physicochemical; conditions: 25 and 50 μM

SMILES | inhibition of FGF2 secretion from cells [1] | solubility / aggregates of compound [2]
COC(=O)c1c(C)[nH]c(C(=O)OCc2cc(=O)n3c(C)cccc3n2)c1C [compound #6] | inhibition was observed in a dose-dependent manner | –
CC(=O)c1c(C)[nH]c(C(=O)OCc2cc(=O)n3cc(Br)ccc3n2)c1C [compound #14] | inhibition was observed in a dose-dependent manner | –
CC(=O)c1c(C)[nH]c(C(=O)CSc2nc3cc(Cl)cnc3[nH]2)c1C [compound #21] | inhibition was stronger at 10 μM compared to higher concentrations; also recorded: robust inhibition at 10 μM and somewhat less efficient inhibition at 25 and 50 μM | aggregates of compound #21 were increasingly observable at concentrations of 25 and 50 μM; also recorded: solubility issues
